No end group written: not given here.
How the values were obtained:
[1] = test system: BV2 microglia cells; experiment: In vitro phagocytosis of Aβ1-42 in BV2 cells, Western blot; format: cell-based, mouse; conditions: Example 16; 5 μg/mL cytochalasin D
Protocol: For total Aβ detection, 10-30 μg of cell extracts were separated on a precast 10-20% SDS polyacrylamide Tris-Tricine gel (Bio-Rad, Canada). Separated proteins were then transferred onto polyvinylidene fluoride (PVDF) membranes (PerkinElmer, Canada). Membrane were incubated in DPBS (Gibco, USA) at 90° C. for 10 min. Membrane were then incubated for 1 hour in blocking solution, which consist in TBS-T (50 mM Tris-HCl pH 8.0; 150 mM NaCl; 0.05% Tween 20) supplemented with 1% BSA (Sigma, Canada) and 5% non-fat dry milk, and probed for 16 hours at 4° C. with a mouse anti-amyloid beta protein monoclonal antibody clone 6E10 (Covance, USA) diluted to 1:1000 in TBS-T supplemented with 5% BSA and 0.02% sodium azide. Membranes were washed once for 15 min and three times for 5 min in TBS-T at room temperature. […] Films were digitalized using a HP Scanjet 4370 (HP) and signal intensity was measured using ImageJ (version 1.44p, NIH).
Aβ specific antibodies stimulate the uptake of soluble Aβ1-42 toxic peptides in an actin polymerization-dependent mechanism. […] Cells were incubated for the indicated period of time, resuspended by trypsinization, collected, solubilised in lysis buffer and further analyzed by immunoblotting. […]

[2] = test system: Aβ42; experiment: Anti Aβ42 specific immunogenicity in TASTPM mice; format: in vivo; conditions: Example 24; 12 injections of 10 ug, intramuscular
Protocol: Whole blood is collected from mice and centrifuged on a vacutainer blood collection tube containing gel for serum separation. Serum samples are stored at −80° C. Streptavidin-coated plates (Greiner Bio-One, Germany) are first coated with beta-amyloid (1-42)-Lys(Biotin)-NH2 peptide (Anaspec, Inc.) at 0.5 μg/mL, using 50 mM sodium carbonate buffer, overnight at 4° C. Plates are then washed using a 4 times using PBS/0.05% Tween 20. Super Block (ScyTek laboratories) is added to the plates and incubated at 37° C. for at least one hour. Serum samples and standard (anti Aβ42 antibody (6E10 antibody, Covance, Inc.) are serially diluted in the plates and incubated at 37° C. for 2 hours. After a wash step, diluted peroxidase AffiniPure goat anti-mouse IgG, Fcγ fragment specific (Jackson ImmunoResearch Laboratories Inc.) is added for 1 hour at 37° C. A last wash is performed before adding TMB substrate reagent (BD OptEIA™, BD Biosciences) for 30 min at RT. Immediately, plates are stopped using 2N sulfuric acid, and then read at 450 nm using SpectraMax microplate reader (Molecular Devices, Inc.).
High and specific anti Aβ42 specific immunogenicity is promoted by a TLR2 containing adjuvant fused to the first six amino acid of Aβ in the amyloid deposition mouse model (TASTPM) following 12 injections of 10 ug of the Pam3Cys—SQ EPAAPAAEAT PAAEAP DAEFRH (SEQ ID NO:9) using the intramuscular route.

[3] = test system: working memory; experiment: T-water maze in TASTPM mice; format: in vivo; conditions: Example 25; 12 weekly i.m. injections; vs PBS
Protocol: Mice were tested during the “light on” phase of the day. Behavioral experimenter was blinded to the genetic and treatment status of animals. To assess hippocampal-dependent spatial learning and memory, mice were trained in the T-water maze task. In this paradigm, we evaluate the mouse's ability to remember the spatial location of submerged platform. The T-maze apparatus (length of stem, 64 cm; length of arms, 30 cm; width, 12 cm; height of walls, 16 cm) was made of clear fiberglass and filled with water (23±1° C.) at a height of 12 cm. A platform (11×11 cm) was placed at the end of the target arm and was submerged 1 cm below the surface. The acquisition phase allows to evaluate animals for left-right spatial learning. During the first two trials, platforms were placed on each arms of the maze to test the spontaneous turning preference of the mouse. After these two trials, the least chosen arm was reinforced by the escape platform. […] The number of trials to reach the criterion (five of five correct choices made on consecutive trials) was measured as well as the latency to find the escape platform.
To determine whether a TLR2 agonist will improve the cognitive impairment in TASTPM mice, the Pam3CysLip adjuvant fused to the Aβ1-6 peptide was injected 12 times at weekly basis using the intramuscular route and the memory was assessed using the T-water maze test. […]

[4] = test system: TASTPM mice; experiment: Survival rate of TASTPM mouse model; format: in vivo; conditions: Example 26; weekly injections; followed for 112 days
Description: The usage of the TLR2 agonist, i.e. Pam3CysLip Aβ1-6 peptide, improves the survival rate of TASTPM mouse model. 23 out of 25 mice survived after weekly injections of Pam3CysLip Aβ1-6 peptide compared to PBS injected animals in which only 13 out 25 TASTPM mice survived (followed for 112 days).

[5] = test system: AD-like neuropathologies; conditions: Schenk D. et al, 1999; cited from earlier work

For `C=C1[C@@H](C)[C@H]2[C@H](Cc3ccccc3)NC(=O)[C@]23[C@H](OC(C)=O)/C=C/[C@@](C)(O)C(=O)[C@@H](C)C/C=C/[C@H]3[C@@H]1O` [cytochalasin D], which “effect on 2E7-increased cellular uptake of Aβ1-42” value [1] is on record?
The value was “inhibited”.

With “Pam3Cys—SQ EPAAPAAEAT PAAEAPDAEFRH (Pam3Cys-SQEPAAPAAEATPAAEAPDAEFRH) [Pam3CysLip Aβ1-6]” as the molecule, how does the Aβ42 specific immunogenicity [2] read?
Its Aβ42 specific immunogenicity is “High Aβ42 specific Immunogenicity”.

And the “right-left discrimination tests, T-water maze” value [3]?
The value was “trend of improvement”.

And the mice survived [4]?
The mice survived was 23 out of 25.

For “synthetic human Aβ1-42: synthetic human Aβ1-42 used to immunize PDAPP mice”, which AD-like neuropathologies [5] is on record?
Its AD-like neuropathologies is “reduce the extent and progression of AD-like neuropathologies”.
